According to patent US11433086B2, “Combination of T-cell checkpoint inhibitors with inhibitors of e-selectin or CXCR4, or with heterobifunctional inhibitors of both E-selectin and CXCR4” (GlycoMimetics, Inc., priority 2016, dated 2022):

System: T-Cells (CD4+ and CD8+), Tregs, MDSCs and checkpoint markers in tumors and spleens
Experiment: Flow cytometry immune profile of tumors and spleens, Day 15
Format: in vivo, Balb/c mice
Procedure: The anti-cancer activity of an anti-mPD-L1 antibody (10F.9G2) and GMI-1359 was compared to a rat isotype control antibody against indeterminate subcutaneous CT26.WT carcinoma xenografts in female Balb/c mice. An immune profile of each mouse was determined by sampling tumors and spleens, staining for several markers of an active immune response, and detecting the levels of these markers via flow cytometry. Flow cytometry markers included: T-Cells (CD4^+ and CD8^+), Regulatory T-Cells (Tregs). (CD4^+/CD25^+/FoxP3^+), MDSCs (CD11b^+/Gr1^+) and co-expression of CCR7^+ and CD62^+ added to the existing CD4/CD8 panel.
At 24 hours after the final dose of GMI-1359 (Day 15), all mice from Groups 7-12 were euthanized for tumor and spleen collection. All mice were euthanized via over exposure to carbon dioxide. The tumors and spleens were excised and placed in a labeled 5 mL sampling tube filled with cold PBS and placed on ice. The tumors and spleens were provided to the Molecular Imaging's in vitro group for flow cytometric analysis.
For tumor dissociation, the tumor was weighed and <1 g tissue was processed according to Miltenyi Tumor Dissociation Protocol 2.2.1, Dissociation of soft tumors, before proceeding to the red blood cell lysis.
For spleen dissociation, the plunger on a 3 mL syringe was used to crush the spleen in 10 mL DPBS until organ was well broken up and the DPBS became cloudy with cells. The cell suspension was then filtered with a 70 μm strainer on a 50 mL tube and washed with 20 mL DPBS. The suspension was then centrifuged for 7 minutes at 300 rcf and the supernatant was discarded before proceeding the red blood cell lysis.
For the red blood cell lysis, each of the tumor and spleen samples were re-suspended in 3 mL ACK Lysis Buffer and then incubated for 5 minutes at room temperature. The suspension was diluted by adding 10 mL DPBS, and then the cells were collected via centrifugation for 5 minutes at 300 rcf. The cells were again re-suspended in 30 mL DPBS and counted. The suspension was centrifuged again, and the supernatant was discarded before proceeding to the Fc block.
For the Fc block, each of the tumor and spleen samples were re-suspended at 1E+06 cells per 100 μL in Flow Cytometry Staining buffer with 1 μL Fc block per 1E+06 cells. The suspensions were incubated for 5 minutes at room temperature, then centrifuged for 5 minutes at 300 rcf, and the supernatant was removed before proceeding to surface staining.
For the surface staining, the following antibody dilutions were prepared, 50 μL per reaction in Flow Cytometry Staining Buffer (except FoxP3):
For surface staining, the tumor and spleen cells were re-suspended at 1E+06 cells per 50 μL. Each of the 50 μL cell suspensions containing 1E+06 cells was added to 50 μL antibodies diluted in staining buffer in round-bottom 96-well plate. The plate was incubated for 30 minutes in the dark at room temperature on the orbital shaker, setting 2.5. The samples were diluted by adding 200 μL Flow Cytometry Staining Buffer and then centrifuged for 5 minutes at 300 rcf. The supernatant was aspirated and the cells were washed wash by re-suspending in 250 μL Flow Cytometry Staining Buffer and spinning. If staining for intracellular markers, after washing, the sample was then prepared according to the intracellular staining procedure described below. The samples were then re-suspended in 250 μL Flow Cytometry Staining Buffer and were ready for Flow Cytometry Analysis.
When staining for intracellular markers, following the wash step, the cells were re-suspended in 200 μL FoxP3 Fixation/Permeabilization working solution and incubated for 30 minutes in the dark at room temperature. The samples were then centrifuged at 400 rcf for 5 minutes at room temperature, then the supernatant was discarded. 200 μL 1× permeabilization buffer was added to each well. The samples were centrifuged at 400 rcf for 5 minutes at room temperature, then the supernatant was discarded. […]

Structure (SMILES): CCC1CC(C(=O)NCCNCc2ccc(CN3CCCNCCNCCCNCC3)c(Br)c2)CC(OC2OC(CO)C(O)C(O[C@@H](CC3CCCCC3)C(=O)O)C2NC(C)=O)C1OC1OC(C)C(O)C(O)C1O (stereo partly drawn) [GMI-1359]
- average percentage of CCR7^+/CD62L^+ cells within the CD8^+ T-cell population in spleens (spleens, Day 15, Groups 8-12): 1.00%
- average percentage of CD4^+ T-cells expressing CCR7 but not CD62L in spleens (spleens, Day 15, Groups 8-12): 33.36%
- average percentage of CD4^+ T-cells expressing CD62L but not CCR7 in spleens (spleens, Day 15, Groups 8-12): 5.42%
- average percentage of CD4^+ T-cells expressing both CCR7 and CD62L in spleens (spleens, Day 15, Groups 8-12): 2.05%
- average percentage of CD4^+ cells in spleens (spleens, Day 15, Groups 8-12): 13.43%
- average percentage of CD8^+ T-cells expressing CCR7 but not CD62L in spleens (spleens, Day 15, Groups 8-12): 27.95%
- average percentage of CD8^+ T-cells expressing CD62L but not CCR7 in spleens (spleens, Day 15, Groups 8-12): 2.94%
- average percentage of CD8^+ cells in spleens (spleens, Day 15, Groups 8-12): 8.77%
- average percentage of MDSCs in spleens (spleens, Day 15, Groups 8-12): 3.70%
- average percentage of Tregs in spleens (spleens, Day 15, Groups 8-12): 10.00%
- average percentage of cells expressing CTLA-4 in spleens (spleens, Day 15, Groups 8-12): 12.31%
- average percentage of cells expressing PD-1 in spleens (spleens, Day 15, Groups 8-12): 5.53%
- average percentage of cells expressing PD-L1 in spleens (spleens, Day 15, Groups 8-12): 81.50%
- percentage of CD4^+/CCR7^+/CD62L^+ cells in spleens, change (spleens, Day 15, compared to vehicle, GMI-1359 or isotype control antibody, respectively): did not
- average percentage of (CD4^+) cells expressing CD62L but not CCR7 in tumors (tumors, Day 15, Groups 8-12): 31.43%
- average percentage of CCR7^+/CD62L^+ cells within the CD8^+ T-cell population in tumors (tumors, Day 15, Groups 8-12): 25.84%
- average percentage of CD4^+ T-cells expressing both CCR7 and CD62L in tumors (tumors, Day 15, Groups 8-12): 25.32%
- average percentage of CD8^+ cells in tumors (tumors, Day 15, Groups 8-12): 15.61%
- average percentage of cells expressing CTLA-4 in tumors (tumors, Day 15, Groups 8-12): 42.80%
- average percentage of cells expressing PD-1 in tumors (tumors, Day 15, Groups 8-12): 23.39%
- average percentage of cells expressing PD-L1 in tumors (tumors, Day 15, Groups 8-12): 34.44%
- average percentage of myeloid-derived suppressor cells (MDSCs) in tumors (tumors, Day 15, Groups 8-12): 2.66%
- average percentage of regulatory T-cells (Tregs) in tumors (tumors, Day 15, Groups 8-12): 2.93%
- detection of CD4^+/CCR7^+/CD62L^− and CD8^+/CCR7^+/CD62L^− populations in tumor samples (tumors, Day 15, Groups 8-12): Neither CD4^+/CCR7^+/CD62L^− nor CD8^+/CCR7^+/CD62L^− populations were detected
- percentage of CD8^+ T-cells expressing CD62L but not CCR7 in tumors (tumors, Day 15, Groups 8-12): 25.65%
- average percentage of CD4^+ cells in tumors (tumors, Day 15, Groups 8-12 (GMI-1359 40 mg/kg IP Days 3-14, antibody 10 mg/kg IP Days 3,6,10,13)): 7.02%
- percentage of Treg among tumor infiltrating cells (summary comparison) (tumors, Day 15, groups 8, 10, 12, saline group 7 3.3%): 2.9%
